In patent publication US12281080B2, “Quinoline-based compounds and methods of inhibiting CDK8/19” (University of South Carolina, priority 2018, dated 2025):

How the values were obtained:
CAMK1G = CAMK1G (Homo sapiens (Human), UniProt Q96NX5); test: KINOMEscan scanMAX; type: binding; settings: 2000 nM; read-out: Percent Control
BRSK1 = BRSK1 (Homo sapiens (Human), UniProt Q8TDC3); test: KINOMEscan scanMAX; type: binding; settings: 2000 nM; read-out: Percent Control
STK35 = STK35 (Homo sapiens (Human), UniProt Q8TDR2); test: KINOMEscan scanMAX; type: binding; settings: 2000 nM; read-out: Percent Control
[1] = biological target: RSK1(Kin.Dom.2-C-terminal) (RPS6KA1) (Homo sapiens (Human), UniProt Q15418); test: KINOMEscan scanMAX; type: binding; settings: 2000 nM; read-out: Percent Control
MYO3B = MYO3B (Homo sapiens (Human), UniProt Q8WXR4); test: DiscoverX Kd assay; settings: average from duplicate measurements
CSNK1G3 = CSNK1G3 (Homo sapiens (Human), UniProt Q9Y6M4); test: KINOMEscan scanMAX; type: binding; settings: 2000 nM; read-out: Percent Control
PLK3 = PLK3 (Homo sapiens (Human), UniProt Q9H4B4); test: KINOMEscan scanMAX; type: binding; settings: 2000 nM; read-out: Percent Control
NEK6 = NEK6 (Homo sapiens (Human), UniProt Q9HC98); test: KINOMEscan scanMAX; type: binding; settings: 2000 nM; read-out: Percent Control
NDR1 (STK38) = NDR1 (STK38) (Homo sapiens (Human), UniProt Q15208); test: KINOMEscan scanMAX; type: binding; settings: 2000 nM; read-out: Percent Control
MAP4K3 = MAP4K3 (Homo sapiens (Human), UniProt Q8IVH8); test: KINOMEscan scanMAX; type: binding; settings: 2000 nM; read-out: Percent Control
Chain of MAP4K3 (Q8IVH8 whole entry): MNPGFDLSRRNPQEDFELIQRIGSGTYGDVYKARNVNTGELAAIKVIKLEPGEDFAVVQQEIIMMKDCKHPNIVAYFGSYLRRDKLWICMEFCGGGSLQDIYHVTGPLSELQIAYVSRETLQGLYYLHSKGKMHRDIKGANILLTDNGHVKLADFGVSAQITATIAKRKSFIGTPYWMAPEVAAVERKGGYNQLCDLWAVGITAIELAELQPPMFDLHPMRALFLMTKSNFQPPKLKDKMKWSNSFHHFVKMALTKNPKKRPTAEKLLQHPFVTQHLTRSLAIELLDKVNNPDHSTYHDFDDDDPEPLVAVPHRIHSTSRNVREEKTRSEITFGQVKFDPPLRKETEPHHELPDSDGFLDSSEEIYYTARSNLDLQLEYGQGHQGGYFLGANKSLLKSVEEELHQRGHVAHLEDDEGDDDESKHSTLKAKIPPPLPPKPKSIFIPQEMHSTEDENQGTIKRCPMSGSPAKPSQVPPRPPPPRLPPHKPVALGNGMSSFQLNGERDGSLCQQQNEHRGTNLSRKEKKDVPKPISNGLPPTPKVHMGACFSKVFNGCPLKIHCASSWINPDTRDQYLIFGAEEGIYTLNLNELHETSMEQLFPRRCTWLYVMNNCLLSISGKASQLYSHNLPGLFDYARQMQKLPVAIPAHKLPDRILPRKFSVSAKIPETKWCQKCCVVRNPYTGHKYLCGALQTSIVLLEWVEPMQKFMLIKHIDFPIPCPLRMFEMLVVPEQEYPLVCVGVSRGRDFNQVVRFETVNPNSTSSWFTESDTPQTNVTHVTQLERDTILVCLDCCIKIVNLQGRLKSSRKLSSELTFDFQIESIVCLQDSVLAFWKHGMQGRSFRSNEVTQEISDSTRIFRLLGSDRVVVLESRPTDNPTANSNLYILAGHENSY

C4-2 xenografts = test: PSA mRNA in C4-2 xenografts in mice; type: in vivo; settings: 40 mg/kg orally daily for 4 days, male NcrNU mice
Method: CDK8/19 inhibition decreases the expression of certain androgen-receptor (AR) inducible genes including PSA, the most common marker of prostate cancer, and the growth of castration-refractory prostate cancers (CRPC). The in vivo effects of Senexin C on PSA expression by C4-2 cells were analyzed after treatment of male NcrNU mice bearing C4-2 xenografts (grouped based on tumor sizes) for 4 days at 40 mg/kg administered orally daily.

TGFBR2 = TGFBR2 (Homo sapiens (Human), UniProt P37173); test: KINOMEscan scanMAX; type: binding; settings: 2000 nM; read-out: Percent Control
LIMK2 = LIMK2 (Homo sapiens (Human), UniProt P53671); test: KINOMEscan scanMAX; type: binding; settings: 2000 nM; read-out: Percent Control
TTK = TTK (Homo sapiens (Human), UniProt P33981); test: KINOMEscan scanMAX; type: binding; settings: 2000 nM; read-out: Percent Control
BMPR1A = BMPR1A (Homo sapiens (Human), UniProt P36894); test: KINOMEscan scanMAX; type: binding; settings: 2000 nM; read-out: Percent Control
CDK7 = CDK7 (Homo sapiens (Human), UniProt P50613); test: KINOMEscan scanMAX; type: binding; settings: 2000 nM; read-out: Percent Control
Chain of CDK7 (P50613 whole entry): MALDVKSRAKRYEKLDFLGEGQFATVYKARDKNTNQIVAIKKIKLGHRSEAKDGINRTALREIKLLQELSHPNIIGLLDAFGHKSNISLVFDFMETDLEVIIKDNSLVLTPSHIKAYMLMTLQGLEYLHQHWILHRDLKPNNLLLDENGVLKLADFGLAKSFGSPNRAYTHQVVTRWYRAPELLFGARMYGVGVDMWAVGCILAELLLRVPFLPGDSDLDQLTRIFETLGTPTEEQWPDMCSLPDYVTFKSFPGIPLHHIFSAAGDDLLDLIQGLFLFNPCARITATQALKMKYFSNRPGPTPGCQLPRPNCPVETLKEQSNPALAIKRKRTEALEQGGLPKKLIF

RIPK5 (DSTYK) = RIPK5 (DSTYK) (Homo sapiens (Human), UniProt Q6XUX3); test: KINOMEscan scanMAX; type: binding; settings: 2000 nM; read-out: Percent Control
ABL2 = ABL2 (Homo sapiens (Human), UniProt P42684); test: KINOMEscan scanMAX; type: binding; settings: 2000 nM; read-out: Percent Control
HASPIN (GSG2) = HASPIN (GSG2) (Homo sapiens (Human), UniProt Q8TF76); test: KINOMEscan scanMAX; type: binding; settings: 2000 nM; read-out: Percent Control
MAP4K2 = MAP4K2 (Homo sapiens (Human), UniProt Q12851); test: DiscoverX Kd assay
CLK1 = CLK1 (Homo sapiens (Human), UniProt P49759); test: KINOMEscan scanMAX; type: binding; settings: 2000 nM; read-out: Percent Control
[2] = Metabolic stability in human hepatocytes; type: in vitro ADME; settings: 2 μM, 37° C.
[3] = biological target: RSK4(Kin.Dom.1-N-terminal) (RPS6KA6) (Homo sapiens (Human), UniProt Q9UK32); test: KINOMEscan scanMAX; type: binding; settings: 2000 nM; read-out: Percent Control
Chain of RSK4(Kin.Dom.1-N-terminal) (RPS6KA6) (Q9UK32 73-330): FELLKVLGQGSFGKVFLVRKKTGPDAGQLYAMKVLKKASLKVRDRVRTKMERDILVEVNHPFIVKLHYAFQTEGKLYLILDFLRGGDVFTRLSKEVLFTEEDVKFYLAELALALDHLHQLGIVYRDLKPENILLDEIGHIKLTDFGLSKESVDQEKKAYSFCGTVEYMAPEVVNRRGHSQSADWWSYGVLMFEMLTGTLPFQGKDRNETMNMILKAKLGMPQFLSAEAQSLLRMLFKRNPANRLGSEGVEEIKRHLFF

CAMKK2 = CAMKK2 (Homo sapiens (Human), UniProt Q96RR4); test: KINOMEscan scanMAX; type: binding; settings: 2000 nM; read-out: Percent Control
PIK3CD = PIK3CD (Homo sapiens (Human), UniProt O00329); test: KINOMEscan scanMAX; type: binding; settings: 2000 nM; read-out: Percent Control
AURKB = AURKB (Homo sapiens (Human), UniProt Q96GD4); test: KINOMEscan scanMAX; type: binding; settings: 2000 nM; read-out: Percent Control
Chain of AURKB (Q96GD4 whole entry): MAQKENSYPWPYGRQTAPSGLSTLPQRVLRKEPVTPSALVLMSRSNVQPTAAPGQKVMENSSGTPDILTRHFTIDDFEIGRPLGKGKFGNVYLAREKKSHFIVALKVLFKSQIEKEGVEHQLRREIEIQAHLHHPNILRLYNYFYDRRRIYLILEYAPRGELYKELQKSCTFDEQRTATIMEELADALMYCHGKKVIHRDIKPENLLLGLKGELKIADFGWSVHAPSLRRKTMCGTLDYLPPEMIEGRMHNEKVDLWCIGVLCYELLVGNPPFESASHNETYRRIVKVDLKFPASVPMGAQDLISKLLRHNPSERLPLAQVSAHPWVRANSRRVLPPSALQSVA

MEK4 (MAP2K4) = MEK4 (MAP2K4) (Homo sapiens (Human), UniProt P45985); test: KINOMEscan scanMAX; type: binding; settings: 2000 nM; read-out: Percent Control
Chain of MEK4 (MAP2K4) (P45985 whole entry): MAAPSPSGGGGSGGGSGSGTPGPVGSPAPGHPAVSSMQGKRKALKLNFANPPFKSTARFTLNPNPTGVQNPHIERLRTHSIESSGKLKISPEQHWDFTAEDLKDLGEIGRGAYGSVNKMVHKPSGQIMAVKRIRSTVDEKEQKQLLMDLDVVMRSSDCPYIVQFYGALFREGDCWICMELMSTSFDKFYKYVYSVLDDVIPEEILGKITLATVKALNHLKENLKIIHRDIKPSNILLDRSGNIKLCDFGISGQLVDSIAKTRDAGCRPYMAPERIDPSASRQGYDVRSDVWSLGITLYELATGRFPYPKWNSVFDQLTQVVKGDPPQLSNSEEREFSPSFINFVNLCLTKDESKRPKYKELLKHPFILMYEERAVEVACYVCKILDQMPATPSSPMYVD

TGFBR1 = TGFBR1 (Homo sapiens (Human), UniProt P36897); test: KINOMEscan scanMAX; type: binding; settings: 2000 nM; read-out: Percent Control
PIK3CB = PIK3CB (Homo sapiens (Human), UniProt P42338); test: KINOMEscan scanMAX; type: binding; settings: 2000 nM; read-out: Percent Control
Chain of PIK3CB (P42338 whole entry): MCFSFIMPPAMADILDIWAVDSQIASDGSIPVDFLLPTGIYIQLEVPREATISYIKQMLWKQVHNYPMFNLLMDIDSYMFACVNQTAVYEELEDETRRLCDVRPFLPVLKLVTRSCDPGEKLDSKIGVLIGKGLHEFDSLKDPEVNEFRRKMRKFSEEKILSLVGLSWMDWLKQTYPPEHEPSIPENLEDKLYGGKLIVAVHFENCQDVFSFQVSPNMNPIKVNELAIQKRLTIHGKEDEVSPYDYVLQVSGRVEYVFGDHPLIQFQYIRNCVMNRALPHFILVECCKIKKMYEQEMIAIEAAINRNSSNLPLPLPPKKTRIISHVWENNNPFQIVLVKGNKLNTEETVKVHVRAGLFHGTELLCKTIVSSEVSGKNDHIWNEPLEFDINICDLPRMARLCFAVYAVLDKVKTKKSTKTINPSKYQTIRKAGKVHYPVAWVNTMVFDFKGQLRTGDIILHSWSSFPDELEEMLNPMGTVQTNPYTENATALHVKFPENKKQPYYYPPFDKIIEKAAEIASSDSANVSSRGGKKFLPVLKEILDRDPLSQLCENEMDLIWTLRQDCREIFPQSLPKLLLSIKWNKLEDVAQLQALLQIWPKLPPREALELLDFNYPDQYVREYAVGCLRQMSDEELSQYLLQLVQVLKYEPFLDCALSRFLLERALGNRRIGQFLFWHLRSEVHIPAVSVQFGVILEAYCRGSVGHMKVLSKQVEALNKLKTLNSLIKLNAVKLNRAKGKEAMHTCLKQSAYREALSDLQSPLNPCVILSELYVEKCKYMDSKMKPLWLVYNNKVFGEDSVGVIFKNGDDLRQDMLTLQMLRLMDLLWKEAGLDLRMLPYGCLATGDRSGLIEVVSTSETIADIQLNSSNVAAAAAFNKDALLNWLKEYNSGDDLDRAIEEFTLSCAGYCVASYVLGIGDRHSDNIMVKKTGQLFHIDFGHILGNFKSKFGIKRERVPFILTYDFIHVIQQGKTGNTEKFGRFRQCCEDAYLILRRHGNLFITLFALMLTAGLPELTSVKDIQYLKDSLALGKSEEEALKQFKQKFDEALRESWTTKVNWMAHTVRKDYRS

MERTK = MERTK (Homo sapiens (Human), UniProt Q12866); test: KINOMEscan scanMAX; type: binding; settings: 2000 nM; read-out: Percent Control
CAMK2D = CAMK2D (Homo sapiens (Human), UniProt Q13557); test: KINOMEscan scanMAX; type: binding; settings: 2000 nM; read-out: Percent Control
YANK1 (STK32A) = YANK1 (STK32A) (Homo sapiens (Human), UniProt Q8WU08); test: KINOMEscan scanMAX; type: binding; settings: 2000 nM; read-out: Percent Control
AMPK-alpha1 (PRKAA1) = AMPK-alpha1 (PRKAA1) (Homo sapiens (Human), UniProt Q13131); test: KINOMEscan scanMAX; type: binding; settings: 2000 nM; read-out: Percent Control
Chain of AMPK-alpha1 (PRKAA1) (Q13131 whole entry): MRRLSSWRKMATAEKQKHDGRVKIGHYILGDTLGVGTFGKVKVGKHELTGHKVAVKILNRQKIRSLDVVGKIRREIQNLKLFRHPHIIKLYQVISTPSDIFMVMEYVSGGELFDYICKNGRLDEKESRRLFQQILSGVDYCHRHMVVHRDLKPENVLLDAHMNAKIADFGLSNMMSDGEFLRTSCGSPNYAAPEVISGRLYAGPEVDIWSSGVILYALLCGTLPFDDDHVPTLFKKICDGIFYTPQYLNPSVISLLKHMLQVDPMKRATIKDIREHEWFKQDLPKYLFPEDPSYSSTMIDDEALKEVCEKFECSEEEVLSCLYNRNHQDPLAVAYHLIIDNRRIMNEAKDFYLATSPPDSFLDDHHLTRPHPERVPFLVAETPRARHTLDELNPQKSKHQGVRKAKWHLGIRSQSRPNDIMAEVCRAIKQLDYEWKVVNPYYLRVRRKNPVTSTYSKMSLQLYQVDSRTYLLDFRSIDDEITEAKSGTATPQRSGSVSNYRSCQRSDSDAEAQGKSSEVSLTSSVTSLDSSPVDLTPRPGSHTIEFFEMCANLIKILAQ

CDK11 (CDK19) = CDK11 (CDK19) (Homo sapiens (Human), UniProt Q9BWU1); test: KINOMEscan scanMAX; type: binding; settings: 2000 nM; read-out: Percent Control
CDKL2 = CDKL2 (Homo sapiens (Human), UniProt Q92772); test: KINOMEscan scanMAX; type: binding; settings: 2000 nM; read-out: Percent Control
KIT(V559D) = KIT(V559D) (Homo sapiens (Human), UniProt P10721, V559D); test: KINOMEscan scanMAX; type: binding; settings: 2000 nM; read-out: Percent Control
[4] = biological target: EGFR(L747-S752del, P753S) (Homo sapiens (Human), UniProt P00533, DEL747-752/P753S); test: KINOMEscan scanMAX; type: binding; settings: 2000 nM; read-out: Percent Control
Chain of EGFR(L747-S752del, P753S) (P00533 other isoform, or with tags, fused parts or gaps P753S/del L747-S752): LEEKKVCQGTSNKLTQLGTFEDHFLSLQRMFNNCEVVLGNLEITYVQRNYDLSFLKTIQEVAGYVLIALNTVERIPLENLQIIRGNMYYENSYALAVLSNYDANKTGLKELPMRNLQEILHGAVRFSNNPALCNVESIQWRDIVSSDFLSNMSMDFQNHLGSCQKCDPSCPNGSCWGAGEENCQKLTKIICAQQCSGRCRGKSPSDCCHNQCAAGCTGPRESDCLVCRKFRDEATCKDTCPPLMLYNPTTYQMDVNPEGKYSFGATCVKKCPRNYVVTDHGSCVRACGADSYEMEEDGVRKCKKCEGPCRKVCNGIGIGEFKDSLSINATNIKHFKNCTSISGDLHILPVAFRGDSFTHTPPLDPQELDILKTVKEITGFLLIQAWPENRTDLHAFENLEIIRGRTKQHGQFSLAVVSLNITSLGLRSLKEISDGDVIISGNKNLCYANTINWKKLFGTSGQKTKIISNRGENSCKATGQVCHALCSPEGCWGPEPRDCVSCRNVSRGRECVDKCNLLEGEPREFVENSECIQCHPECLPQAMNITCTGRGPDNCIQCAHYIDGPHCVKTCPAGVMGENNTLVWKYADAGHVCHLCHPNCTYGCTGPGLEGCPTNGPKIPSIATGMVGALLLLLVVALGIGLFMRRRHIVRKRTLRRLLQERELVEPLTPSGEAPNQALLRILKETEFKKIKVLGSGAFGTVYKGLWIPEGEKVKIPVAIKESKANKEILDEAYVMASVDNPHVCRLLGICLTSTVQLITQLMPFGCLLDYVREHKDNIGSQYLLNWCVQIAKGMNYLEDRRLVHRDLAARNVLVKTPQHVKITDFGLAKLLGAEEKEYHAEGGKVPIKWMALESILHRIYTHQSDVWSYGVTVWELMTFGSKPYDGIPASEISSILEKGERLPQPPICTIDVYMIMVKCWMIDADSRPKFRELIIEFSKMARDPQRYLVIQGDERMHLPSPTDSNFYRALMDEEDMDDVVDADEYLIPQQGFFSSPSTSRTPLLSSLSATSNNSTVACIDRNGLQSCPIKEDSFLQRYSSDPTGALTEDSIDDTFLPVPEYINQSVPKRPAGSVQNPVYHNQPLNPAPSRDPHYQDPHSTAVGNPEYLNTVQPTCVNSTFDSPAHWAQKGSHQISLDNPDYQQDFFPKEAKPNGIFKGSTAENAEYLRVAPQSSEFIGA

CN1CCN(C(=O)c2ccc3cc(CCNc4ccnc5ccc(C#N)cc45)ccc3c2)CC1 [compound 6148, 4-((2-(6-(4-methylpiperazine-1-carbonyl)naphthalen-2-yl)ethyl)amino)quinoline-6-carbonitrile]
remaining binding at 2 µM (CAMK1G): 92% | remaining binding at 2 µM (BRSK1): 100% | remaining binding at 2 µM (STK35): 100% | remaining binding at 2 µM [1]: 97% | Kd (MYO3B): > 30000 nM | remaining binding at 2 µM (CSNK1G3): 76% | remaining binding at 2 µM (PLK3): 80% | remaining binding at 2 µM (NEK6): 93% | remaining binding at 2 µM (NDR1 (STK38)): 79% | remaining binding at 2 µM (MAP4K3): 100% | PSA mRNA levels in the tumor (C4-2 xenografts): strongly decreased | remaining binding at 2 µM (TGFBR2): 96% | remaining binding at 2 µM (LIMK2): 93% | remaining binding at 2 µM (TTK): 72% | remaining binding at 2 µM (BMPR1A): 95% | remaining binding at 2 µM (CDK7): 69% | remaining binding at 2 µM (RIPK5 (DSTYK)): 69% | remaining binding at 2 µM (ABL2): 93% | remaining binding at 2 µM (HASPIN (GSG2)): 29% | Kd (MAP4K2): 940 nM | remaining binding at 2 µM (CLK1): 60% | Metabolic conversion rate in cultured hepatocytes [2]: greatly decreased relative to Senexin B | remaining binding at 2 µM [3]: 60% | remaining binding at 2 µM (CAMKK2): 82% | remaining binding at 2 µM (PIK3CD): 61% | remaining binding at 2 µM (AURKB): 75% | remaining binding at 2 µM (MEK4 (MAP2K4)): 58% | remaining binding at 2 µM (TGFBR1): 100% | remaining binding at 2 µM (PIK3CB): 64% | remaining binding at 2 µM (MERTK): 89% | remaining binding at 2 µM (CAMK2D): 94% | remaining binding at 2 µM (YANK1 (STK32A)): 76% | remaining binding at 2 µM (AMPK-alpha1 (PRKAA1)): 94% | remaining binding at 2 µM (CDK11 (CDK19)): 13% | remaining binding at 2 µM (CDKL2): 75% | remaining binding at 2 µM (KIT(V559D)): 95% | remaining binding at 2 µM [4]: 98%
